# Measurements reported in patent US20060189546A1, “Compounds for treating autoimmune and demyelinating diseases” (priority 2005, published 2006).
# Test system: colorectal cancer cell lines (HT29 & HCT116)
# Assay: Microarray gene expression, cells grown with Symadex at the GI50 concentration
# Type: cell-based, human
# Description: Two colorectal cancer cell lines (HT29 & HCT116) were chosen for study, whose behavior as rapidly proliferating invasive cells could be generalized to many other such cell types from different tissue origins. The two lines were immortalized colon carcinomas. Their gene expression patterns are known to mimic the behavior of neuro-enteric cells and therefore provide an appropriate simulation of the kinds of regulatory patterns that would be found in cells of similar epithelial or endothelial origin. Cells with these ontological roots are also suitable models for the kinds of autoimmune and inflammatory susceptibilities that are common in tissues of neuroenteric origin, such as those in which inflammatory bowel disease would present itself.
# Frozen cell pellets were lysed in triplicate and total RNA isolated by purification over spin columns (all reagents from Ambion). After QC acceptance for purity, total RNA was converted to cRNA by linear amplification and 10 μg samples were applied to CodeLink Human Whole Genome Bioarrays (GE Healthcare and GenUs Biosystems).
# Arrays were processed in triplicate and comparisons made after robust statistical analysis of replicate variability. […] False discovery rates and representation in standardized gene ontologies/pathways were then determined by filtering the “fold” changes in expression with open access software packages, EASE and GoMiner, and with Pathways Analysis (Ingenuity Systems). Functional annotations were then explored further in the MedMiner literature search environment.
# A listing of these is shown in Table 3, in which the first column data presents the fold change against control, the second column cites the gene symbol, the third column cites the Genbank Accession, and the fourth column provides an abridged description of the gene's function.
structure (smiles),measurement,setting,value
"CCN(CC)CCNc1ccc2ncn3c4ccc(O)cc4c(=O)c1c23 [Symadex™, 5-[[(diethylamino)ethyl]amino]-8-hydroxyimidazo[4,5,1-de]-acridine-6-one]",Mean fold change over control: GGH,NM_003878,−1.96
same,Mean fold change over control: MPZL1,NM_003953,−2.04
same,Mean fold change over control: C3AR1,NM_004054,−15.52
same,Mean fold change over control: EIF2S1,NM_004094,−2.13
same,Mean fold change over control: FEN1,NM_004111,−2.87
same,Mean fold change over control: SLC1A2,NM_004171,−11.21
same,Mean fold change over control: SLC9A3,NM_004174,−15.57
same,Mean fold change over control: SNRPD3,NM_004175,−2.31
same,Mean fold change over control: CDKL1,NM_004196,−8.14
same,Mean fold change over control: PTTG1,NM_004219,−2.43
same,Mean fold change over control: SLC22A13,NM_004256,−11.51
same,Mean fold change over control: BAG2,NM_004282,−2.22
same,Mean fold change over control: BAD,NM_004322,−2.08
same,Mean fold change over control: ERH,NM_004450,−3.39
same,Mean fold change over control: KCNQ2,NM_004518,−24.13
same,Mean fold change over control: MYBPC2,NM_004533,−21.22
same,Mean fold change over control: SPOCK,NM_004598,−6.57
same,Mean fold change over control: NMI,NM_004688,−2.41
same,Mean fold change over control: CCNB2,NM_004701,−2.51
same,Mean fold change over control: PDCD5,NM_004708,−2.21
same,Mean fold change over control: ZW10,NM_004724,−2.31
same,Mean fold change over control: DDX1,NM_004939,−2.09
same,Mean fold change over control: IBSP,NM_004967,−58.56
same,Mean fold change over control: CCL23,NM_005064,−12.99
same,Mean fold change over control: COX6A2,NM_005205,−23.19
same,Mean fold change over control: GJB5,NM_005268,−62.09
same,Mean fold change over control: GPR15,NM_005290,−80.43
same,Mean fold change over control: GPR24,NM_005297,−13.80
same,Mean fold change over control: SULT1E1,NM_005420,−10.91
same,Mean fold change over control: RQCD1,NM_005444,−2.38
same,Mean fold change over control: ZNF265,NM_005455,−2.03
same,Mean fold change over control: STMN1,NM_005563,−2.41
same,Mean fold change over control: LCP2,NM_005565,−11.85
same,Mean fold change over control: VDAC3,NM_005662,−2.22
same,Mean fold change over control: D8S2298E,NM_005671,−1.88
same,Mean fold change over control: SCAMP3,NM_005698,−2.00
same,Mean fold change over control: THOC4,NM_005782,−3.41
same,Mean fold change over control: KLRG1,NM_005810,−24.24
same,Mean fold change over control: DSCR1L1,NM_005822,−9.75
same,Mean fold change over control: MSLN,NM_005823,−17.46
same,Mean fold change over control: SLC35B1,NM_005827,−2.23
same,Mean fold change over control: CD5L,NM_005894,−13.25
same,Mean fold change over control: MCM6,NM_005915,−1.97
same,Mean fold change over control: MCM7,NM_005916,−2.69
same,Mean fold change over control: CD164,NM_006016,−2.14
same,Mean fold change over control: DLEU2,NM_006021,−3.39
same,Mean fold change over control: C10ORF7,NM_006023,−2.11
same,Mean fold change over control: NFATC1,NM_006162,−16.69
same,Mean fold change over control: TIMM23,NM_006327,−2.02
same,Mean fold change over control: PPIH,NM_006347,−2.49
same,Mean fold change over control: SYNCRIP,NM_006372,−2.23
same,Mean fold change over control: SSSCA1,NM_006396,−2.20
same,Mean fold change over control: RNASEH2A,NM_006397,−2.31
same,Mean fold change over control: SIVA,NM_006427,−2.78
same,Mean fold change over control: USP16,NM_006447,−66.26
same,Mean fold change over control: PAICS,NM_006452,−2.03
same,Mean fold change over control: RPC62,NM_006468,−2.22
same,Mean fold change over control: PIR51,NM_006479,−3.73
same,Mean fold change over control: FARS1,NM_006567,−2.11
same,Mean fold change over control: RBBP9,NM_006606,−8.81
same,Mean fold change over control: NMU,NM_006681,−2.12
same,Mean fold change over control: U2AF1,NM_006758,−1.99
same,Mean fold change over control: PRSS21,NM_006799,−22.21
same,Mean fold change over control: KIF2C,NM_006845,−2.52
same,Mean fold change over control: CENTA1,NM_006869,−19.89
same,Mean fold change over control: TRH,NM_007117,−8.14
same,Mean fold change over control: ZNF258,NM_007167,−2.66
same,Mean fold change over control: DUSP12,NM_007240,−2.18
same,Mean fold change over control: HSGT1,NM_007265,−2.08
same,Mean fold change over control: DTYMK,NM_012145,−3.07
same,Mean fold change over control: TPSD1,NM_012217,−13.71
same,Mean fold change over control: TFEC,NM_012252,−20.30
same,Mean fold change over control: RAD54B,NM_012415,−2.04
same,Mean fold change over control: SPO11,NM_012444,−14.75
same,Mean fold change over control: TIMM10,NM_012456,−2.23
same,Mean fold change over control: UMPK,NM_012474,−1.92
same,Mean fold change over control: HMMR,NM_012484,−2.94
same,Mean fold change over control: DNAJD1,NM_013238,−2.24
same,Mean fold change over control: TAC3,NM_013251,−12.26
same,Mean fold change over control: RACGAP1,NM_013277,−2.31
same,Mean fold change over control: ALG5,NM_013338,−2.71
same,Mean fold change over control: ANAPC4,NM_013367,−1.92
same,Mean fold change over control: NRG1,NM_013956,−17.54
same,Mean fold change over control: SLC27A6,NM_014031,−18.72
same,Mean fold change over control: MRPL13,NM_014078,−2.16
same,Mean fold change over control: TMEM4,NM_014255,−2.21
same,Mean fold change over control: PLK4,NM_014264,−2.39
same,Mean fold change over control: ITGB3BP,NM_014288,−2.73
same,Mean fold change over control: SULT4A1,NM_014351,−293.18
same,Mean fold change over control: ZNRD1,NM_014596,−2.17
same,Mean fold change over control: MEA,NM_014623,−2.39
same,Mean fold change over control: DCLRE1A,NM_014881,−3.14
same,Mean fold change over control: KIAA0089,NM_015141,−7.23
same,Mean fold change over control: RCOR1,NM_015156,−7.09
same,Mean fold change over control: ARL6IP,NM_015161,−2.29
same,Mean fold change over control: EGFL6,NM_015507,−28.71
same,Mean fold change over control: GMNN,NM_015895,−2.81
same,Mean fold change over control: MRPL11,NM_016050,−2.97
same,Mean fold change over control: MYO15A,NM_016239,−50.59
same,Mean fold change over control: DNAJB11,NM_016306,−2.15
same,Mean fold change over control: POLR3K,NM_016310,−2.24
same,Mean fold change over control: NR2E3,NM_016346,−14.89
same,Mean fold change over control: WWOX,NM_016373,−2.07
same,Mean fold change over control: RNF141,NM_016422,−2.29
same,Mean fold change over control: POLA,NM_016937,−1.88
same,Mean fold change over control: PDE11A,NM_016953,−16.85
same,Mean fold change over control: MRPL39,NM_017446,−2.20
same,Mean fold change over control: LIMS2,NM_017980,−57.61
same,Mean fold change over control: FAIM,NM_018147,−3.32
same,Mean fold change over control: LPAAT-E,"NM_018361, first entry",−11.94
same,Mean fold change over control: LPAAT-E,"NM_018361, second entry",−2.40
same,Mean fold change over control: SIAT7A,NM_018414,−11.76
same,Mean fold change over control: LRP1B,NM_018557,−15.01
same,Mean fold change over control: TCP11,NM_018679,−9.82
same,Mean fold change over control: BCAP29,NM_018844,−2.17
same,Mean fold change over control: GDAP1,NM_018972,−2.44
same,Mean fold change over control: ROBO4,NM_019055,−11.95
same,Mean fold change over control: POLE4,NM_019896,−2.04
same,Mean fold change over control: SARA1,NM_020150,−2.14
same,Mean fold change over control: RAD18,NM_020165,−2.28
same,Mean fold change over control: MRPL1,NM_020236,−2.02
same,Mean fold change over control: NUP107,NM_020401,−2.68
same,Mean fold change over control: KCNJ12,NM_021012,−15.93
same,Mean fold change over control: MRPL23,NM_021134,−2.29
same,Mean fold change over control: ATP2B3,NM_021949,−9.43
same,Mean fold change over control: NUCKS,NM_022731,−2.02
same,Mean fold change over control: MIS12,NM_024039,−2.20
same,Mean fold change over control: SUV39H2,NM_024670,−2.33
same,Mean fold change over control: TXNDC,NM_030755,−2.13
same,Mean fold change over control: PHAX,NM_032177,−2.17
same,Mean fold change over control: PCDH7,NM_032457,−19.65
same,Mean fold change over control: GPR54,NM_032551,−2.56
same,Mean fold change over control: PHF5A,NM_032758,−2.95
same,Mean fold change over control: SYNE1,NM_033071,−1481.77
same,Mean fold change over control: SLC7A13,NM_138817,−27.75
same,Mean fold change over control: BBS2,T26496,−23.65
same,number of down-regulated genes significantly represented in both cell types,"array of 55,000 gene fragment accessions",271
